Data taken from patent US7829591B2, “Flavanone compound and uses thereof” (Pokka Corporation, priority 2003, dated 2010).

Experiments:
[1] = system: Staphylococcus aureus (Sta.); test: Antimicrobial activity test with Compounds 1 to 4; assay type: cell-based; conditions: for effect on growth and development of Gram-positive bacteria, Sta. (in words): 5-50 ppm
Description: (§1) That is, first of all, each of Compounds 1 to 4 was dissolved in 70% ethanol, and thereafter, standard agar media were prepared wherein the concentration of each of Compounds 1 to 4 was adjusted to be 0 ppm, 5 ppm, 10 ppm, 15 ppm, 20 ppm, or 50 ppm. Subsequently, these standard agar media were subjected to autoclave sterilization so as to prepare evaluation media, and each of the biological indicators was inoculated in each of these evaluation media. After the incubation of each of the bacteria, the number of the bacteria per a petri dish (CFU/petri dish) was determined.

E. coli = test: Antimicrobial activity test with Compounds 1 to 4; assay type: cell-based; conditions: for effect on growth and development of E. coli (in words): 5-50 ppm
Description: as §1

[2] = system: Salmonella enteritidis (S. en; NBRC3313); test: Antimicrobial activity test with Compounds 1 to 4; assay type: cell-based; conditions: for effect on growth and development of S. en (in words): 5-50 ppm
Description: as §1

Bacillus cereus (B. ce) = test: Antimicrobial activity test with Compounds 1 to 4; assay type: cell-based; conditions: for effect on growth and development of spore forming bacteria, B. ce (in words): 5-50 ppm
Description: as §1

β-carotene fading test = assay type: biochemical; conditions: for Antioxidant Activity (%) from β-carotene Fading Test: 20 μM in reaction liquid, 60° C. for 60 minutes, absorbance 470 nm, average ± SD of three runs; for antioxidant activity (in words): comparison from Table 1
Description: β-carotene will fade due to the reaction of linoleic acid peroxide, which is produced by the autoxidation of linoleic acid, with a double bond in β-carotene. This phenomenon was utilized so as to determine the antioxidant activity of each of Compounds 1 to 4 and the like. That is, first of all, 2 ml of a 200 mg/ml solution of Tween-40 in chloroform, 0.4 ml of a 100 mg/ml solution of linoleic acid in chloroform, and 3 ml of a 0.1 mg/ml solution of β-carotene in chloroform were mixed, and thereafter the solvent was removed by using a nitrogen gas. Subsequently, 100 ml of distilled water was added thereto, and adequately stirred to obtain an emulsion. To 3 ml of this emulsion, ethanol was added to completely dissolve the solute in the solvent. Thereafter, each of Compounds 1 to 4 was dissolved in ethanol so as to prepare a sample solution having a concentration of 1.2 mM. 50 μl of the sample solution was mixed with the above emulsion wherein the solute had been completely dissolved so as to prepare a reaction liquid (or a sample reaction liquid). Then the concentration of each of Compounds 1 to 4 in the reaction liquid was 20 μM. The reaction liquid was incubated at 60° C. for 60 minutes. Then the absorbance of each of the reaction liquid before the incubation and the reaction liquid after the incubation was determined at 470 nm. Furthermore, BHT, α-tocopherol, or eriodictyol was used in place of Compounds 1 to 4 so as to determine the absorbance of the reaction liquid before and after incubation according to a similar procedure to the above-mentioned one. In addition, as a control, a reaction liquid (or a control reaction liquid) wherein no sample solution was contained was prepared so as to determine the absorbance of the reaction liquid before and after incubation according to a similar procedure to the above-mentioned one. The antioxidant activity (%) of each of the materials was calculated using the following calculation formula 2. Incidentally, each of values shown in Table 1 is the average value and standard deviation of values obtained from three runs. (Antioxidant Activity)=[{(Fading Rate of Control)−(Fading Rate of Sample Solution)}/(Fading Rate of Control)]×100 Calculation Formula 2
It should be noted that in the calculation formula 2, “Fading Rate of Control” is the natural logarithm of a value which is acquired by dividing the absorbance of the control reaction liquid before incubation by the absorbance of the control reaction liquid after incubation and further by dividing the resultant value by 60; and “Fading Rate of Sample Solution” is the natural logarithm of a value which is acquired by dividing the absorbance of the sample reaction liquid before incubation by the absorbance of the sample reaction liquid after incubation and further by dividing the resultant value by 60.

[3] = 5 ppm in standard agar medium, 0 ppm: 470 (Table 3), 202 (Table 4)
[4] = 5 ppm in standard agar medium, 0 ppm: >3000 (Table 3), 5 (Table 4)
[5] = 5 ppm in standard agar medium, 0 ppm: >3000 (Table 3), 221 (Table 4)
[6] = 5 ppm in standard agar medium, 0 ppm: 13 (Table 3), 183 (Table 4)

Structure (SMILES) | effect on growth and development of Gram-positive bacteria, Sta. (in words) [1] | Number of Bacteria, Sta. [1, 3] [CFU/petri dish] | Number of Bacteria, Sta. ([1]; 10 ppm in standard agar medium) [CFU/petri dish] | Number of Bacteria, Sta. ([1]; 15 ppm in standard agar medium) [CFU/petri dish] | Number of Bacteria, Sta. ([1]; 20 ppm in standard agar medium) [CFU/petri dish] | Number of Bacteria, Sta. ([1]; 50 ppm in standard agar medium) [CFU/petri dish] | effect on growth and development of E. coli (in words) (E. coli) | Number of Bacteria, E. coli (E. coli; [4]) [CFU/petri dish] | Number of Bacteria, E. coli (E. coli; 10 ppm in standard agar medium) [CFU/petri dish] | Number of Bacteria, E. coli (E. coli; 15 ppm in standard agar medium) [CFU/petri dish] | Number of Bacteria, E. coli (E. coli; 20 ppm in standard agar medium) [CFU/petri dish] | Number of Bacteria, E. coli (E. coli; 50 ppm in standard agar medium) [CFU/petri dish] | effect on growth and development of S. en (in words) [2] | Number of Bacteria, S. en [2, 5] [CFU/petri dish] | Number of Bacteria, S. en ([2]; 10 ppm in standard agar medium) [CFU/petri dish] | Number of Bacteria, S. en ([2]; 15 ppm in standard agar medium) [CFU/petri dish] | Number of Bacteria, S. en ([2]; 20 ppm in standard agar medium) [CFU/petri dish] | Number of Bacteria, S. en ([2]; 50 ppm in standard agar medium) [CFU/petri dish] | effect on growth and development of spore forming bacteria, B. ce (in words) (Bacillus cereus (B. ce)) | Number of Bacteria, B. ce (Bacillus cereus (B. ce); [6]) [CFU/petri dish] | also measured
CC(C)=CCC/C(C)=C/Cc1c(O)cc2c(c1O)C(=O)C[C@@H](c1ccc(O)c(O)c1)O2 [Compound 3, 5,7,3′,4′-tetrahydroxy-6-C-geranylflavanone] | high antimicrobial activity | 22 | 0 | 0 | 0 | 0 | high antimicrobial activity | 3 | 1 | 0 | 0 | 0 | antimicrobial activity | 296 | 207 | 116 | 143 | 43 | high antimicrobial activity | 4 | Number of Bacteria, B. ce (Bacillus cereus (B. ce); 10 ppm in standard agar medium): 0 CFU/petri dish; Number of Bacteria, B. ce (Bacillus cereus (B. ce); 15 ppm in standard agar medium): 0 CFU/petri dish; Number of Bacteria, B. ce (Bacillus cereus (B. ce); 20 ppm in standard agar medium): 0 CFU/petri dish; Number of Bacteria, B. ce (Bacillus cereus (B. ce); 50 ppm in standard agar medium): 0 CFU/petri dish; Antioxidant Activity (%) from β-carotene Fading Test (β-carotene fading test): 60.62 ± 1.16%
CC(C)=CCC/C(C)=C/Cc1cc([C@@H]2CC(=O)c3c(O)cc(O)cc3O2)cc(O)c1O [Compound 2, 5,7,3′,4′-tetrahydroxy-5′-C-geranylflavanone] | more strongly the growth and development of each of Gram-5 positive bacteria and spore forming bacteria is inhibited | 395 | 108 | 22 | 0 | 0 | little effect upon the growth and development | >3000 | >3000 | >3000 | >3000 | >3000 | little effect upon the growth and development | >3000 | >3000 | >3000 | >3000 | >3000 | more strongly the growth and development of each of Gram-5 positive bacteria and spore forming bacteria is inhibited | 17 | Number of Bacteria, B. ce (Bacillus cereus (B. ce); 10 ppm in standard agar medium): 0 CFU/petri dish; Number of Bacteria, B. ce (Bacillus cereus (B. ce); 15 ppm in standard agar medium): 0 CFU/petri dish; Number of Bacteria, B. ce (Bacillus cereus (B. ce); 20 ppm in standard agar medium): 0 CFU/petri dish; Number of Bacteria, B. ce (Bacillus cereus (B. ce); 50 ppm in standard agar medium): 0 CFU/petri dish; Antioxidant Activity (%) from β-carotene Fading Test (β-carotene fading test): 78.07 ± 1.79%; antioxidant activity (in words) (β-carotene fading test): about the same high antioxidant activity as that of each of BHT, α-tocopherol, and eriodictyol
CC(C)=CCC/C(C)=C/Cc1c([C@@H]2CC(=O)c3c(O)cc(O)cc3O2)ccc(O)c1O [Compound 1, 5,7,3′,4′-tetrahydroxy-2′-C-geranylflavanone] | more strongly the growth and development of each of Gram-5 positive bacteria and spore forming bacteria is inhibited | 344 | 36 | 0 | 0 | 0 | little effect upon the growth and development | >3000 | >3000 | >3000 | >3000 | >3000 | little effect upon the growth and development | >3000 | >3000 | >3000 | >3000 | >3000 | more strongly the growth and development of each of Gram-5 positive bacteria and spore forming bacteria is inhibited | 12 | Number of Bacteria, B. ce (Bacillus cereus (B. ce); 10 ppm in standard agar medium): 0 CFU/petri dish; Number of Bacteria, B. ce (Bacillus cereus (B. ce); 15 ppm in standard agar medium): 0 CFU/petri dish; Number of Bacteria, B. ce (Bacillus cereus (B. ce); 20 ppm in standard agar medium): 0 CFU/petri dish; Number of Bacteria, B. ce (Bacillus cereus (B. ce); 50 ppm in standard agar medium): 0 CFU/petri dish; Antioxidant Activity (%) from β-carotene Fading Test (β-carotene fading test): 85.54 ± 2.24%; antioxidant activity (in words) (β-carotene fading test): about the same high antioxidant activity as that of each of BHT, α-tocopherol, and eriodictyol
